Measurements taken from patent publication US11242327B2, “Analgesic compounds” (RECURIUM IP HOLDINGS, LLC, priority 2017, dated 2022).

Tests used:
male Sprague-Dawley rats [1] = test: UVB Inflammatory Pain Test (thermal hyperalgesia); type: in vivo; details: rat, oral; for paw withdrawal latency, 1 h: 1 h after dosing; for paw withdrawal latency, 2 h: 2 h after dosing; for paw withdrawal latency, 4 h: 4 h after dosing
Outline: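 Left hind-paw plantar UVB (350 mJoules/cm^2) given on Day −3 to male Sprague-Dawley rats; on Day 0, test compounds dosed orally at 3, 10, 30 or 100 mg/kg, with water vehicle, celecoxib 30 mg/kg and acetaminophen 300 mg/kg. Radiant-heat paw withdrawal latency (mean of 3, 30 s cutoff) measured before dosing and about 1, 2 and 4 h after.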

Opiate μ = Opiate μ (Homo sapiens, UniProt P35372); test: NSAIDS and Opioid Receptor Test: Opiate μ; type: binding; details: 10 μM
Description: (§1) Compounds were screened as DMSO solutions at 10 μM, 100 μM, or 200 μM and values represent percent inhibition of control-specific binding. […] As NSAID and opioid mechanisms of action are precluded, a person of ordinary skill in the art understands that undesirable side effects associated with inhibition of COX receptors in NSAIDs and activation of opiate receptors in opioids can be avoided by compounds described herein. Furthermore, opioids are known to lose their analgesic potency after to continued administration. (See Benyamin, et al. “Opioid Complications and Side Effects” Pain Physician 11 (2008): S105-S120). As the data indicates compounds described herein have a different mechanism action compared to opioids, a person of ordinary skill in the art would appreciate that compounds described herein would not be expected to lose their analgesic potency like opioids after continued admininistration.

male Sprague-Dawley rats [2] = test: Spinal Nerve Ligation (SNL) Neuropathic Pain Test; type: in vivo; details: rat, oral; for 50% response threshold, 1 h: 1 h after administration; for 50% response threshold, 2 h: 2 h after administration; for 50% response threshold, 4 h: 4 h after administration
Description: Neuropathy was induced in non-fasted male Sprague-Dawley rats weighing 75-100 g by surgically ligating the 4th and 5th lumbar spinal nerves (L4 and L5), a procedure also known as spinal nerve ligation (SNL). Animals were placed in individual acrylic chambers on a metal mesh surface and allowed to acclimate to their surroundings for a minimum of 15 minutes before testing. Mechanical sensitivity was assessed using 8 Semmes-Weinstein filaments (Stoelting©; Wood Dale, Ill., USA) with varying stiffness (0.4, 0.6, 1.0, 2.0, 4.0, 6.0, 8.0, and 15 g) according to an up-down method to determine 50% response thresholds. Each filament was presented perpendicular to the plantar surface with sufficient force to cause slight buckling against the paw and held for approximately 6 seconds or until a positive response is noted (paw sharply withdrawn). Testing was initiated with the 2.0 g filament. In the absence of a paw withdrawal response, the next stronger stimulus was presented. In the event of paw withdrawal, the next weaker stimulus was used. This process was repeated until 4 responses after the initial change in response (no response to positive response or positive response to no response) were obtained. […] The 50% response threshold was calculated using the formula: 50% response threshold (g)=(10^(Xf+kδ))/10,000;
Xf=value (in log units) of the final von Frey filament used;
k=tabular value for the pattern of positive/negative responses (See Chaplan, et al. “Quantitative Assessment of Tactile Allodynia in the Rat Paw” J. Neurosci. Meth. 53.1 (1994): 56-63);
[…] =mean difference (in log units) between stimuli.
The mean and standard error of the mean (SEM) were determined for each paw for each treatment group at each time point. Thresholds were determined prior to surgery and again 14 days later. After 14 days, test or control compounds were administered and thresholds were again determined 1, 2, and 4 hours after compound administration. Median response thresholds in compound-treated animals were compared to those in vehicle treated animals to determine anti-allodynic efficacy of test and control compounds. Test compounds were administered orally at concentrations of 10, 30 or 100 mg/kg and gabapentin was administered orally at a concentration of 100 mg/kg. The control group received the vehicle (sterile water). In Table 7, ‘A’ designates a 50% threshold of ≥8 grams, ‘B’ designates a 50% threshold of ≥6 and <8 grams, and ‘C’ designates a 50% threshold of <6 grams.
The results provided in Table 7 are for oral administration in rats.

Opiate δ2 = Opiate δ2 (Homo sapiens, UniProt P41143); test: NSAIDS and Opioid Receptor Test: Opiate δ2; type: binding; details: 10 μM
Description: as §1

Sequence of Opiate δ2 (P41143 whole entry): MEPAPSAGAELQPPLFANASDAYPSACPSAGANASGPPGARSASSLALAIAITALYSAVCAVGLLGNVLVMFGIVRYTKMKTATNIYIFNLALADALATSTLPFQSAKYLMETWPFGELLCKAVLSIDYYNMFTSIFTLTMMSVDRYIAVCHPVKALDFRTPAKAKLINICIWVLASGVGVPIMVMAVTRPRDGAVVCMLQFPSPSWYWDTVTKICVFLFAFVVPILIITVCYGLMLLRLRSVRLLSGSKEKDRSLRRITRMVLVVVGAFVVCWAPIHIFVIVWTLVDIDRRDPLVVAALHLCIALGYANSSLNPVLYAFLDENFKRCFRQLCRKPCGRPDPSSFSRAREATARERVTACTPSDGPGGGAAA
Sequence of Opiate μ (P35372 whole entry): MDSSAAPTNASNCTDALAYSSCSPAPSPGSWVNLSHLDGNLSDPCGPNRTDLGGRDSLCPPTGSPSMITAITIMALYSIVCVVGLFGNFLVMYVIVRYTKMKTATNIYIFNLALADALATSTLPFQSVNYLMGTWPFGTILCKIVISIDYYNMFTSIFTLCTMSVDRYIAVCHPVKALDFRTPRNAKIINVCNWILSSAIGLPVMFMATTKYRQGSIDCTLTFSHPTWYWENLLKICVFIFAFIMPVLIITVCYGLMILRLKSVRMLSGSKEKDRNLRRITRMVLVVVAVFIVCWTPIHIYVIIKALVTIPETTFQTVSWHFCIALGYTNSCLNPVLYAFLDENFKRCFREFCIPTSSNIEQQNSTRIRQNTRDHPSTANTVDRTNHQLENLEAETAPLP

Row | SMILES | paw withdrawal latency, 1 h (male Sprague-Dawley rats [1]; 3 mg/kg) | paw withdrawal latency, 2 h (male Sprague-Dawley rats [1]; 3 mg/kg) | paw withdrawal latency, 4 h (male Sprague-Dawley rats [1]; 3 mg/kg) | paw withdrawal latency, 1 h (male Sprague-Dawley rats [1]; 10 mg/kg) | paw withdrawal latency, 2 h (male Sprague-Dawley rats [1]; 10 mg/kg) | paw withdrawal latency, 4 h (male Sprague-Dawley rats [1]; 10 mg/kg) | paw withdrawal latency, 1 h (male Sprague-Dawley rats [1]; 30 mg/kg) | paw withdrawal latency, 2 h (male Sprague-Dawley rats [1]; 30 mg/kg) | paw withdrawal latency, 4 h (male Sprague-Dawley rats [1]; 30 mg/kg) | paw withdrawal latency, 1 h (male Sprague-Dawley rats [1]; 100 mg/kg) | paw withdrawal latency, 2 h (male Sprague-Dawley rats [1]; 100 mg/kg) | paw withdrawal latency, 4 h (male Sprague-Dawley rats [1]; 100 mg/kg) | inhibition at 10 µM (Opiate μ) [%] | 50% response threshold, 1 h (male Sprague-Dawley rats [2]; 10 mg/kg) | 50% response threshold, 2 h (male Sprague-Dawley rats [2]; 10 mg/kg) | 50% response threshold, 4 h (male Sprague-Dawley rats [2]; 10 mg/kg) | 50% response threshold, 1 h (male Sprague-Dawley rats [2]; 30 mg/kg) | 50% response threshold, 2 h (male Sprague-Dawley rats [2]; 30 mg/kg) | 50% response threshold, 4 h (male Sprague-Dawley rats [2]; 30 mg/kg) | 50% response threshold, 1 h (male Sprague-Dawley rats [2]; 100 mg/kg) | further results
1 | Cl.NC12CC(c3nc(C(F)(F)F)cs3)(C1)C2 [Compound 1, 3-(4-(Trifluoromethyl)thiazol-2-yl)bicyclo[1.1.1]pentan-1-amine hydrochloride] | B (>6 and <8 seconds of paw withdrawal latency) | B (>6 and <8 seconds of paw withdrawal latency) | B (>6 and <8 seconds of paw withdrawal latency) | B (>6 and <8 seconds of paw withdrawal latency) | B (>6 and <8 seconds of paw withdrawal latency) | B (>6 and <8 seconds of paw withdrawal latency) | A (>8 seconds of paw withdrawal latency) | A (>8 seconds of paw withdrawal latency) | A (>8 seconds of paw withdrawal latency) | A (>8 seconds of paw withdrawal latency) | A (>8 seconds of paw withdrawal latency) | A (>8 seconds of paw withdrawal latency) | 11 | C (a 50% threshold of <6 grams) | C (a 50% threshold of <6 grams) | C (a 50% threshold of <6 grams) | B (a 50% threshold of ≥6 and <8 grams) | B (a 50% threshold of ≥6 and <8 grams) | C (a 50% threshold of <6 grams) | A (a 50% threshold of ≥8 grams) | 50% response threshold, 2 h (male Sprague-Dawley rats [2]; 100 mg/kg): A (a 50% threshold of ≥8 grams); 50% response threshold, 4 h (male Sprague-Dawley rats [2]; 100 mg/kg): A (a 50% threshold of ≥8 grams); inhibition at 10 µM (Opiate δ2): 7%
2 | Cc1sc(C23CC(N)(C2)C3)nc1C(F)(F)F.Cl [Compound 2, 3-(5-Methyl-4-(trifluoromethyl)thiazol-2-yl)bicyclo[1.1.1]pentan-1-amine hydrochloride] | A (>8 seconds of paw withdrawal latency) | A (>8 seconds of paw withdrawal latency) | A (>8 seconds of paw withdrawal latency) | A (>8 seconds of paw withdrawal latency) | B (>6 and <8 seconds of paw withdrawal latency) | A (>8 seconds of paw withdrawal latency) | A (>8 seconds of paw withdrawal latency) | A (>8 seconds of paw withdrawal latency) | B (>6 and <8 seconds of paw withdrawal latency) | A (>8 seconds of paw withdrawal latency) | A (>8 seconds of paw withdrawal latency) | A (>8 seconds of paw withdrawal latency) | 9 | C (a 50% threshold of <6 grams) | C (a 50% threshold of <6 grams) | C (a 50% threshold of <6 grams) | C (a 50% threshold of <6 grams) | C (a 50% threshold of <6 grams) | C (a 50% threshold of <6 grams) | A (a 50% threshold of ≥8 grams) | 50% response threshold, 2 h (male Sprague-Dawley rats [2]; 100 mg/kg): A (a 50% threshold of ≥8 grams); 50% response threshold, 4 h (male Sprague-Dawley rats [2]; 100 mg/kg): B (a 50% threshold of ≥6 and <8 grams); inhibition at 10 µM (Opiate δ2): 10%
